Experimental data published in the OligoGym collection.
Where “and” joins values, the source holds several entries; their conditions need not be identical. Identical values can stand only once. After the bases stand the sugars from the 5' end (letter, count) and the backbone: PS all phosphorothioate, else s phosphorothioate and o phosphodiester by linkage. Methylation of C is not given here. k = constrained ethyl (cEt); d = 2'-deoxy (DNA)

Target: MALAT1
Conditions: ASO, A431, 0.005 µM

Row | Sequence | target mRNA inhibition
1 | TAAAGTAAATAGGCTA (sugars k3 d10 k3, PS) | 21%
2 | TAAATGACGCAATTCT (sugars k3 d10 k3, PS) | 8%
3 | TAAATTGGTAGCTTTC (sugars k3 d10 k3, PS) | 74% and 80%
4 | TAACAGGCCACTGCCA (sugars k3 d10 k3, PS) | 11%
5 | TAACATAGTTCAACCC (sugars k3 d10 k3, PS) | 17%
6 | TAACTACCAGCCATTT (sugars k3 d10 k3, PS) | 24%
7 | TAACTGATCTGACTTT (sugars k3 d10 k3, PS) | 26%
8 | TAACTTCCCCCAGCTT (sugars k3 d10 k3, PS) | 20%
9 | TAAGAACTCCACAGCT (sugars k3 d10 k3, PS) | 41%
10 | TAAGCCTTCGGTGCCT (sugars k3 d10 k3, PS) | 4%
11 | TAATAGAGCTACTTAG (sugars k3 d10 k3, PS) | -16%
12 | TAATAGCAGCGGGATC (sugars k3 d10 k3, PS) | 30%
13 | TAATGCTAGTCCTCAG (sugars k3 d10 k3, PS) | 38%
14 | TAATTACTCTTGATCT (sugars k3 d10 k3, PS) | 48% and 72%
15 | TACAAAAGCTACCATC (sugars k3 d10 k3, PS) | 12%
16 | TACAACAAGTAAGCCC (sugars k3 d10 k3, PS) | 20%
17 | TACAAGTTACATGTTC (sugars k3 d10 k3, PS) | 20%
18 | TACAGAAAGAGTCCTG (sugars k3 d10 k3, PS) | 17%
19 | TACCATATCCAAACAA (sugars k3 d10 k3, PS) | 11%
20 | TACCTAAACCCACCCC (sugars k3 d10 k3, PS) | 6%
21 | TACCTCTTAAAGCACT (sugars k3 d10 k3, PS) | -17%

Row | Sequence | target mRNA inhibition
22 | TACCTTTTACTCTGAT (sugars k3 d10 k3, PS) | 42%
23 | TACGCAACTGAGCCCC (sugars k3 d10 k3, PS) | 0%
24 | TACTATAGCATCTGTG (sugars k3 d10 k3, PS) | -7%
25 | TACTGCATTTACTTGC (sugars k3 d10 k3, PS) | 20%
26 | TACTTGCCAACTTGGA (sugars k3 d10 k3, PS) | 51%
27 | TAGAGCTTCTCCATTT (sugars k3 d10 k3, PS) | -15%
28 | TAGATTCACTGAATCC (sugars k3 d10 k3, PS) | -4%
29 | TAGGGAAAAGTGGTTG (sugars k3 d10 k3, PS) | -13%
30 | TATAAGGACAGCTAAG (sugars k3 d10 k3, PS) | 21%
31 | TATAATAGAGCTACTT (sugars k3 d10 k3, PS) | 15%
32 | TATAGTTTACCACCTT (sugars k3 d10 k3, PS) | 14%
33 | TATCTGTTAACAGCTG (sugars k3 d10 k3, PS) | 41%
34 | TATGAACCAAAGCTGC (sugars k3 d10 k3, PS) | 7%
35 | TATGAGCTTCAGACCT (sugars k3 d10 k3, PS) | -9%
36 | TATGGATCATGCCCAC (sugars k3 d10 k3, PS) | 27%
37 | TCAACCTCCGTCATGT (sugars k3 d10 k3, PS) | 32%
38 | TCAAGCACCGCTTGAG (sugars k3 d10 k3, PS) | -12% and 8%
39 | TCAAGTGGCCTTTTAA (sugars k3 d10 k3, PS) | -38%
40 | TCAATAGTACTATAGC (sugars k3 d10 k3, PS) | 25%
41 | TCAATCCACTTGATCC (sugars k3 d10 k3, PS) | 14%
42 | TCAATTAATGCTAGTC (sugars k3 d10 k3, PS) | 35%

Row | Sequence | target mRNA inhibition
43 | TCACAAATACGACTGC (sugars k3 d10 k3, PS) | 23%
44 | TCACTACTCCAAGCAT (sugars k3 d10 k3, PS) | 21%
45 | TCAGGATCATTAAGCC (sugars k3 d10 k3, PS) | 37%
46 | TCATAATCTCCCACCT (sugars k3 d10 k3, PS) | 10%
47 | TCATCAACAAAAGCCC (sugars k3 d10 k3, PS) | -8%
48 | TCATTAAGCCACTTCC (sugars k3 d10 k3, PS) | 19%
49 | TCATTACCCCAACTAA (sugars k3 d10 k3, PS) | 17%
50 | TCCAATACTTGTCTTA (sugars k3 d10 k3, PS) | 68% and 75%
51 | TCCATGGTTGTCCTAC (sugars k3 d10 k3, PS) | 35%
52 | TCCCATAATTGTAGTT (sugars k3 d10 k3, PS) | 27%
53 | TCCCCCAACTGCTTGC (sugars k3 d10 k3, PS) | 11%
54 | TCCCCCATTATATTAG (sugars k3 d10 k3, PS) | 14%
55 | TCCCGTACTTCTGTCT (sugars k3 d10 k3, PS) | 41%
56 | TCCCTAACATGCAATA (sugars k3 d10 k3, PS) | 30%
57 | TCCCTGTTAAGACCAT (sugars k3 d10 k3, PS) | 27%
58 | TCCCTTCAGGATCATT (sugars k3 d10 k3, PS) | 10%
59 | TCCGTAACTTTAAATT (sugars k3 d10 k3, PS) | 36%
60 | TCCTATCTTCACCACG (sugars k3 d10 k3, PS) | 40%
61 | TCCTCTACGCACAACG (sugars k3 d10 k3, PS) | 11%
62 | TCCTGAAAGTGCTCAC (sugars k3 d10 k3, PS) | -7%
63 | TCCTGAAATCCCCTAG (sugars k3 d10 k3, PS) | -12%

Row | Sequence | target mRNA inhibition
64 | TCCTGACAAATTATAC (sugars k3 d10 k3, PS) | 28%
65 | TCGGTTTAATCTCTTT (sugars k3 d10 k3, PS) | 63% and 73%
66 | TCTAAATTGGTTCTGG (sugars k3 d10 k3, PS) | 55% and 64%
67 | TCTAACCCAGTTTGTC (sugars k3 d10 k3, PS) | 31%
68 | TCTAGGATCCTCTACG (sugars k3 d10 k3, PS) | -24%
69 | TCTAGGCCATCATACT (sugars k3 d10 k3, PS) | 40%
70 | TCTCAACCTCCGTCAT (sugars k3 d10 k3, PS) | 27%
71 | TCTCTTGAGGGACAGT (sugars k3 d10 k3, PS) | -7%
72 | TCTGAGTGAAGTGTAC (sugars k3 d10 k3, PS) | 34%
73 | TCTGATTATCCTGATA (sugars k3 d10 k3, PS) | 11%
74 | TCTGTGTTATGCCTGG (sugars k3 d10 k3, PS) | 17%
75 | TCTGTTACACCTTGAG (sugars k3 d10 k3, PS) | 48% and 64%
76 | TCTGTTATGTTCACCT (sugars k3 d10 k3, PS) | 52%
77 | TCTTAGTAACCTATTG (sugars k3 d10 k3, PS) | 19%
78 | TCTTCCGCTCAAATCC (sugars k3 d10 k3, PS) | 41%
79 | TCTTGAGGGACAGTAG (sugars k3 d10 k3, PS) | -7%
80 | TGAAACCGATTATGGA (sugars k3 d10 k3, PS) | 3%
81 | TGAAAGAACTAGTGGT (sugars k3 d10 k3, PS) | 23%
